Data: patent US9181255B2, “Fused heteroaromatic pyrrolidinones as SYK inhibitors” (Takeda Pharmaceutical Company Limited, priority 2009, dated 2015)

Biological target: SYK (Homo sapiens, UniProt P43405)
Experiment: SYK inhibition assay: SYK-mediated phosphorylation of FAM-labeled substrate (Caliper microfluidic)
Format: biochemical
Settings: read-out: SYK Inhibition (pIC50) (converted)

Compound | IC50
CN[C@H]1CCCC[C@H]1Nc1nc2c(c(Nc3cccc(C)c3)n1)C(=O)NC2 [Example 38, 2-((1R,2S)-2-(Methylamino)cyclohexylamino)-4-(m-tolylamino)-6,7-dihydro-5H-pyrrolo[3,4-d]pyrimidin-5-one] | 631 nM
Cc1cccc(Nc2nc(N[C@@H]3CCCC[C@@H]3N)nc3c2C(=O)NC32CC2)c1 [Example 39, 2′-((1R,2S)-2-Aminocyclohexylamino)-4′-(m-tolylamino)spiro[cyclopropane-1,7′-pyrrolo[3,4-d]pyrimidin]-5′(6′H)-one] | 3160 nM
Cc1cccc(Nc2nc(NCCN)nc3c2C(=O)NC3)c1 [Example 40, 2-(2-Aminoethylamino)-4-(m-tolylamino)-6,7-dihydro-5H-pyrrolo[3,4-d]pyrimidin-5-one] | 251 nM
Cc1cccc(Nc2nc(NCC(C)(C)N)nc3c2C(=O)NC3)c1 [Example 41, 2-(2-Amino-2-methylpropylamino)-4-(m-tolylamino)-6,7-dihydro-5H-pyrrolo[3,4-c]pyrimidin-5-one] | 1260 nM
Cc1cccc(Nc2nc(NCC(N)=O)nc3c2C(=O)NC3)c1 [Example 42, 2-(5-oxo-4-(m-tolylamino)-6,7-dihydro-5H-pyrrolo[3,4-d]pyrimidin-2-ylamino)acetamide] | 158 nM
Cc1cccc(Nc2nc(N(C)CCN)nc3c2C(=O)NC3)c1 [Example 43, 2-((2-Aminoethyl)(methyl)amino)-4-(m-tolylamino)-6,7-dihydro-5H-pyrrolo[3,4-d]pyrimidin-5-one] | 5010 nM
Cc1cccc(Nc2nc(NCC3CCCN3)nc3c2C(=O)NC3)c1 (stereo not drawn) [Example 44, 2-(Pyrrolidin-2-ylmethylamino)-4-(m-tolylamino)-6,7-dihydro-5H-pyrrolo[3,4-d]pyrimidin-5-one] | 631 nM
Cc1cccc(Nc2nc(N3CCC(N)C3)nc3c2C(=O)NC3)c1 (stereo not drawn) [Example 45, 2-(3-Aminopyrrolidin-1-yl)-4-(m-tolylamino)-6,7-dihydro-5H-pyrrolo[3,4-d]pyrimidin-5-one] | 794 nM
Cc1c(-c2nc(N[C@@H]3CCCC[C@@H]3N)nc3c2C(=O)NC3)cnn1C [Example 46, 2-((1R,2S)-2-Aminocyclohexylamino)-4-(1,5-dimethyl-1H-pyrazol-4-yl)-6,7-dihydro-5H-pyrrolo[3,4-d]pyrimidin-5-one] | 1580 nM
N[C@H]1CCCC[C@H]1Nc1nc2c(c(-c3cc4ccccc4[nH]3)n1)C(=O)NC2 [Example 47, 2-((1R,2S)-2-Aminocyclohexylamino)-4-(1H-indol-2-yl)-6,7-dihydro-5H-pyrrolo[3,4-c]pyrimidin-5-one] | 2.51 nM
N[C@H]1CCCC[C@H]1Nc1nc2c(c(-c3ccn[nH]3)n1)C(=O)NC2 [Example 48, 2-((1R,2S)-2-Aminocyclohexylamino)-4-(1H-pyrazol-5-yl)-6,7-dihydro-5H-pyrrolo[3,4-c]pyrimidin-5-one] | 794 nM
Cc1cccc(Nc2nc(CCCN)nc3c2C(=O)NC3)c1 [Example 49, 2-(3-Aminopropyl)-4-(m-tolylamino)-6,7-dihydro-5H-pyrrolo[3,4-d]pyrimidin-5-one] | > 20000 nM
N[C@H]1CCCC[C@H]1Nc1nc(-c2coc3ccccc23)c2c(c1F)CNC2=O [Example 50, 6-((1R,2S)-2-Aminocyclohexylamino)-4-(benzofuran-3-yl)-7-fluoro-1H-pyrrolo[3,4-c]pyridin-3(2H)-one] | 2.51 nM
N[C@H]1CCCC[C@H]1Nc1nc(-c2cnc3ccccn23)c2c(c1F)CNC2=O [Example 51, 6-((1R,2S)-2-aminocyclohexylamino)-7-fluoro-4-(imidazo[1,2-a]pyridin-3-yl)-1H-pyrrolo[3,4-c]pyridin-3(2H)-one] | 63.1 nM
N[C@H]1CCCC[C@H]1Nc1nc(-c2csc3ccccc23)c2c(c1F)CNC2=O [Example 52, 6-((1R,2S)-2-aminocyclohexylamino)-4-(benzo[b]thiophen-3-yl)-7-fluoro-1H-pyrrolo[3,4-c]pyridin-3(2H)-one] | 63.1 nM
